According to patent US7538193B2, “NO-modified hemoglobins and uses therefor” (Duke University, priority 1995, dated 2009):

Key:
[1] = system: rabbit thoracic aorta rings; test: Rabbit aortic ring bioassay: vessel tone and ACh (EDRF)-mediated relaxation; assay type: cell-based; settings: 1 μM addition; ACh-mediated relaxation of rabbit aortic ring
Excerpt: The effects of native Hb on EDRF responses were compared with Hb preparations in which the thiol or heme centers had been blocked by alkylation or cyanmet derivitization, respectively. All preparations of Hb elicited contractions; however, those of native Hb (in which both SH and metal centers are free for interaction) were most pronounced. […] Relaxations were inhibited to lesser degrees by cyanmet Hb (CN-Hb) (in which hemes were blocked from reaction) and NEM-Hb (in which thiol groups were alkylated by N-ethylmaleimide). […] Direct measurement of SNO-Hb, formed from EDRF under similar conditions, is described in Example 8.
Descending rabbit thoracic aorta were cut into 3 mm rings and mounted on stirrups attached to force transducers (model FT03, Grass Instruments, Quincy, Mass.) for measurement of isometric tone. The details of this bioassay system have been previously described (Stamler, J. S., et al., Proc. Natl. Acad. Sci. USA, 89:444-448 (1992)). Cyanmet Hb was prepared from human HbA according to published protocols (Kilbourn, R. G. et al. Biochem. Biophys. Res. Comm., 199:155-162, (1994)). Alkylation of HbA with N-ethylmaleimide was followed by desalting across G-25 Sephadex to remove excess NEM. Removal of unmodified Hbcysβ93 was achieved by passage through Hg-containing affinity columns. The alkylation of free SH groups was verified using 5,5′-dithio-bis[2-nitrobenzoic acid].

[2] = system: rabbit thoracic aortic rings, endothelium removed; test: Oxygen-dependent vessel ring bioassay (Examples 22, 23); assay type: cell-based
[3] = system: rat brain (caudatoputamen nucleus); test: Brain blood flow in rats by H2 clearance (Example 12); assay type: in vivo; settings: rats breathing 21% O2; 100 or 1000 nmol/kg
Method: SNO-Hb(FeII)O2, having a SNO/Hb ratio of 2, was prepared (from HbA0) by reaction with S-nitrosothiol. Rats breathing 21% O2 were injected (time 0) with Hbs prepared from HbA0 as indicated in FIG. 10 (open circles, SNO-Hb (100 nmol/kg); filled circles, SNO-Hb (1000 nmol/kg); filled squares, unmodified Hb (1000 nmol/kg)). Three rats were used per experiment. Blood flow was measured in brain using the H2 clearance method; microelectrodes were placed in the brain stereotactically. […] NO group release is promoted by local tissue hypoxia.

[4] = system: substantia nigra, caudate putamen nucleus and parietal cortex of Sprague-Dawley rats; test: O2-dependent local cerebral blood flow in rats (Example 25); assay type: in vivo, rat; settings: 1 μmol/kg infused over 3 minutes
Method: Adult male Sprague-Dawley rats (290-350 g) were anesthetized with sodium pentobarbital (50 mg/kg IP), intubated and ventilated with a small animal respirator (Edco Scientific Inc., Chapel Hill, N.C.) at a rate and tidal volume to maintain normal values of PaCO2 (35-45 mm Hg; PaCO2=systemic arterial blood carbon dioxide tension). The femoral vein and artery were cannulated for infusion of drugs and for continuous monitoring of systemic blood pressure, respectively. Aliquots of arterial blood (200 μl) were drawn periodically to measure blood gas tensions and pH (Instrumentation Laboratory Co., model 1304 blood gas/pH analyzer). The blood was replaced intravenously with three volumes of normal saline. The inspired O2 concentration was varied using premixed gases balanced with nitrogen. The tissue PO2 was measured continuously with polarographic platinum microelectrodes (50 μm O.D. coated with hydrophobic gas permeable Nafion) implanted stereotaxically in both the right and left hippocampus (AP-3.4 mm, ML+2.2 mm), caudate putamen nucleus and substantia nigra (see coordinates below) (Young, W., Stroke, 11:552-564 (1980); Heiss, W. D. and Traupett, H., Stroke, 12:161-167 (1981); Dewhirst, M. W. et al., Cancer Res., 54:3333-3336 (1994); Kerger, H. et al., Am. J. Physiol., 268:H802-H810 (1995)). The PO2 electrodes were polarized to −0.65V against a distant Ag/AgCl reference located on the tail and the current flow was measured using a low-impedance nA-meter. Regional arterial PO2 was adjusted by changing the inspired O2 concentration and atmospheric pressure.
Polarographic hydrogen (H2)-sensitive microelectrodes were implanted stereotaxically in the substantia nigra (AP −5.3 mm, ML −2.4 mm to the bregma, depth 3.2 mm), caudate putamen nucleus (CPN) (AP +0.8 mm, ML −2.5 mm, depth 5.2 mm) and parietal cortex, for measurement of regional blood flow (Young, W., Stroke, 11:552-564 (1980); Heiss, W. D. and Traupett, H., Stroke, 12:161-167 (1981)). The microelectrodes were made from platinum wire and insulated with epoxy, with the exception of the tip (1 mm) which was coated with Nafion. For placement, the electrodes were mounted on a micromanipulator and the rat's head was immobilized in a Kopf stereotaxic frame. H2-sensitive electrodes were polarized to +400 mV against a distant reference electrode on the tail, and the polarographic current was measured using a low-impedance nA meter during and after the inhalation of hydrogen gas (2.5%) for 1 min. Both the hydrogen clearance curves and voltage for oxygen measurements were made using PC WINDAQ (software, DI-200 AC, Dataq Instruments, Inc., Akron, Ohio). Cerebral blood flow was calculated using the initial slope method (Young, W., Stroke, 11:552-564 (1980); Heiss, W. D. and Traupett, H., Stroke, 12:161-167 (1981)). Regional blood flow responses were monitored for 30 min. prior to and 30 min. following drug administration; hemoglobins were given at time 0.
The cerebrovascular effects of SNO-Hb were measured in adult male Sprague-Dawley rats using O2 and H2 (blood flow)-sensitive microelectrodes that were placed stereotaxically in several regions of the brain as for Example 24.

Substance: Hb: native, underivatized human hemoglobin A purified from red cells
- % ACh RELAXATION [1]: 31.9 ± 6.9 (n = 7) %
- effect on vessel tone ([2]; 1 μM, rings contracted with phenylephrine under hypoxic conditions (6-7 torr)): progressive increases in vessel tone
- effect of 10 μM glutathione on the response ([2]; 10 μM glutathione in bioassay chambers): no effect
- effect on vessel tension ([2]; 95% O2 or 21% O2 (R-structure)): contract blood vessels
- effect on vessel tension ([2]; <1% O2 (~6 torr), T-structure): strongly contracts blood vessels
- blood flow to the brain [3]: decreases blood flow
- local cerebral blood flow ([4]; 21% O2): decreased local blood flow
- local cerebral blood flow ([4]; 100% O2 + 3 ATA): tended to decrease cerebral flow to similar extents
- local cerebral blood flow ([4]; 100% O2): preserved
